Test results as given in ChEMBL document CHEMBL1201862, “PubChem BioAssay data set” (2004).
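Compound exposure: 48 hours, 5 concentrations, 96-well plates. Abbreviation: GI50, concentration required for 50% inhibition of growth.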 The source made the active and inactive calls. No stated cut-off is given here; in the data, active = GI50 up to about 1.1 µM and inactive = higher.

What was measured:
Assay in all cases: growth of human tumour cells (NCI), 48 h
MDA-MB-435 = system: MDA-MB-435
OVCAR-8 = system: OVCAR-8
CCRF-CEM = system: CCRF-CEM
MOLT-4 = system: MOLT-4
NCI/ADR-RES = system: NCI/ADR-RES
K562 = system: K562
SK-OV-3 = system: SK-OV-3
LOX IMVI = system: LOX IMVI
NCI-H23 = system: NCI-H23
UO-31 = system: UO-31
MDA-N = system: MDA-N
A549 = system: A549
TK-10 = system: TK-10
SF-268 = system: SF-268
OVCAR-3 = system: OVCAR-3
SK-MEL-5 = system: SK-MEL-5
HL-60 = system: HL-60
UACC-257 = system: UACC-257
RXF 393 = system: RXF 393

| Compound | GI50 (MDA-MB-435) | GI50 (OVCAR-8) | GI50 (CCRF-CEM) | GI50 (MOLT-4) | GI50 (NCI/ADR-RES) | GI50 (K562) | GI50 (SK-OV-3) | GI50 (LOX IMVI) | GI50 (NCI-H23) | GI50 (UO-31) | GI50 (MDA-N) | GI50 (A549) | GI50 (TK-10) | GI50 (SF-268) | GI50 (OVCAR-3) | GI50 (SK-MEL-5) | GI50 (HL-60) | GI50 (UACC-257) | GI50 (RXF 393) |
| --- | --- | --- | --- | --- | --- | --- | --- | --- | --- | --- | --- | --- | --- | --- | --- | --- | --- | --- | --- |
| CSC1=N/C(=C\c2cccs2)C(=O)N1CN1CCCCC1 | > 100 µM (inactive) | 51.3 µM (inactive) | 18.7 µM (inactive) | 64.9 µM (inactive) | 50.9 µM (inactive) | 27.1 µM (inactive) | > 100 µM (inactive) | 23.1 µM (inactive) | > 100 µM (inactive) | 23.3 µM (inactive) | > 100 µM (inactive) | > 100 µM (inactive) | > 100 µM (inactive) | 37.8 µM (inactive) | > 100 µM (inactive) | 66.8 µM (inactive) | – | – | – |
| COc1ccc(N[S+]([O-])c2ccccc2OC)cc1 (stereo unspecified) | 7.53 µM (inactive) | 23.7 µM (inactive) | 26.1 µM (inactive) | 27 µM (inactive) | 15.9 µM (inactive) | 8.28 µM (inactive) | – | 10.3 µM (inactive) | 40.8 µM (inactive) | 12.3 µM (inactive) | 33.4 µM (inactive) | 16.2 µM (inactive) | > 100 µM (inactive) | 7.28 µM (inactive) | 61.4 µM (inactive) | 11.2 µM (inactive) | 17.7 µM (inactive) | 33.7 µM (inactive) | – |
| CC1=COC(C)(C=C(C#N)C#N)CC1 (stereo unspecified) | 32.4 µM (inactive) | 52.6 µM (inactive) | 35.3 µM (inactive) | 40.9 µM (inactive) | 48.4 µM (inactive) | 30.5 µM (inactive) | > 100 µM (inactive) | – | 61 µM (inactive) | > 100 µM (inactive) | – | > 100 µM (inactive) | > 100 µM (inactive) | > 100 µM (inactive) | – | 58.1 µM (inactive) | 21.1 µM (inactive) | 57.3 µM (inactive) | > 100 µM (inactive) |
| CC(C)C(NCc1c2ccccc2[n+](C)c2ccccc12)C(=O)O (stereo unspecified) | – | 3.78 µM (inactive) | 0.627 µM (active) | 1.14 µM (inactive) | – | 0.782 µM (active) | 15.5 µM (inactive) | 5.42 µM (inactive) | 8.43 µM (inactive) | 8.07 µM (inactive) | – | 8.22 µM (inactive) | 7.91 µM (inactive) | 2.99 µM (inactive) | 5.81 µM (inactive) | 3.31 µM (inactive) | 1.97 µM (inactive) | 5.51 µM (inactive) | 3.48 µM (inactive) |
| NC1=NC(=O)C2(NN1)c1ccccc1-c1ccccc12 | – | > 10 µM (inactive) | > 10 µM (inactive) | > 10 µM (inactive) | 7.41 µM (inactive) | 9.82 µM (inactive) | > 10 µM (inactive) | > 10 µM (inactive) | > 10 µM (inactive) | > 10 µM (inactive) | > 10 µM (inactive) | > 10 µM (inactive) | > 10 µM (inactive) | > 10 µM (inactive) | > 10 µM (inactive) | > 10 µM (inactive) | 8.99 µM (inactive) | – | > 10 µM (inactive) |
| CC1=C2C(=O)C3[C@@H](CCC4=CC(=O)CC[C@@]43C)C2CC[C@]12O[C@@H]1C[C@H](C)CN[C@H]1[C@H]2C (stereo partly specified) | – | 40.7 µM (inactive) | 15.9 µM (inactive) | 19.9 µM (inactive) | – | 17.4 µM (inactive) | > 100 µM (inactive) | 29.6 µM (inactive) | 37.6 µM (inactive) | 63.7 µM (inactive) | – | 28 µM (inactive) | 29.2 µM (inactive) | 31.6 µM (inactive) | 45.8 µM (inactive) | 42.1 µM (inactive) | 12.3 µM (inactive) | 36 µM (inactive) | 38.5 µM (inactive) |
| C=CCCC1CCCCC/C1=N\N(C)C (stereo unspecified) | > 100 µM (inactive) | > 100 µM (inactive) | > 100 µM (inactive) | > 100 µM (inactive) | > 100 µM (inactive) | > 100 µM (inactive) | > 100 µM (inactive) | > 100 µM (inactive) | > 100 µM (inactive) | > 100 µM (inactive) | > 100 µM (inactive) | > 100 µM (inactive) | > 100 µM (inactive) | > 100 µM (inactive) | > 100 µM (inactive) | > 100 µM (inactive) | > 100 µM (inactive) | > 100 µM (inactive) | – |
